Experimental data published in paper PMC6801739, “Antitumor Activity of a Novel Tyrosine Kinase Inhibitor AIU2001 Due to Abrogation of the DNA Damage Repair in Non-Small Cell Lung Cancer Cells” (International Journal of Molecular Sciences, 2019).

Columns and labels:
WEE1 = biological target: T1, WEE1 (Homo sapiens, UniProt P30291); experiment: Kinase profiling at 10 μM (Eurofins); assay type: biochemical; settings: read-out: Inhibitory activity
T1 construct: purchased Eurofins Pharma Discovery (KinaseProfiler); IC50 values by Reaction Biology Corp

CK2 = biological target: T2, CK2 (Homo sapiens, UniProt P68400); experiment: Kinase profiling at 10 μM (Eurofins); assay type: biochemical; settings: read-out: Inhibitory activity
T2 construct: purchased Eurofins Pharma Discovery (KinaseProfiler); IC50 values by Reaction Biology Corp

PDK1 = biological target: T3, PDK1 (Homo sapiens, UniProt O15530); experiment: Kinase profiling at 10 μM (Eurofins); assay type: biochemical; settings: read-out: Inhibitory activity
T3 construct: purchased Eurofins Pharma Discovery (KinaseProfiler); IC50 values by Reaction Biology Corp

MAPK2 = biological target: T4, MAPK2 (Homo sapiens, UniProt P28482); experiment: Kinase profiling at 10 μM (Eurofins); assay type: biochemical; settings: read-out: Inhibitory activity
T4 construct: purchased Eurofins Pharma Discovery (KinaseProfiler); IC50 values by Reaction Biology Corp

ALK = biological target: T5, ALK (Homo sapiens, UniProt Q9UM73); experiment: Kinase profiling at 10 μM (Eurofins); assay type: biochemical; settings: read-out: Inhibitory activity
T5 construct: purchased Eurofins Pharma Discovery (KinaseProfiler); IC50 values by Reaction Biology Corp

CK1γ1 = biological target: T6, CK1γ1 (Homo sapiens, UniProt Q9HCP0); experiment: Kinase profiling at 10 μM (Eurofins); assay type: biochemical; settings: read-out: Inhibitory activity
T6 construct: purchased Eurofins Pharma Discovery (KinaseProfiler); IC50 values by Reaction Biology Corp

A549 xenografts = experiment: A549 tumor xenograft mouse model; assay type: in vivo, BALB/c nu/nu mice; settings: 20 mg/kg i.p. once per two or three days, five times
Procedure: We next determined whether the antitumor effect associated with in vitro AIU2001 treatment could be translated into an in vivo xenograft mouse model. Mice were subcutaneously (s.c.) implanted with A549 cells in the right hind leg. When the tumors were palpable (average […]: 150 mm^3; 14days post-implantation), mice were intraperitoneally (i.p.) administered 20 mg/kg AIU2001 or DMSO once per two or three days for five times in total. […] At necropsy, the average tumor weight of mice treated with AIU2001 or DMSO was 1.2 g or 2.8 g, respectively (Figure 2B,C).
Figure 2 AIU2001 inhibited tumor growth of A549 xenografts in nude mice. (A) A549 cells were s.c. injected into the thigh of the right hind leg of BALB/c nu/nu mice (n = 4/group). Two weeks after tumor cell injection, AIU2001 (20 mg/kg) or DMSO was administered (i.p.) once per two or three days for five times in total. The longest (L) and shortest (W) tumor axes were measured, and tumor volume (mm^3) was calculated as L × W^2/2. The data shown represent the average tumor volume (* p < 0.05). (B) The weight of the resected tumors was measured at the end of the experiment (*** p < 0.001). (C) Image of resected tumors from mice. (D) The body weights of A549 tumor xenograft mice were determined twice weekly during the experiments.
A549 human lung cancer cell xenografts were initially established by s.c. implanting 1 × 10^6 cultured cells into the thigh of the right hind leg of six week old mice. When tumor volumes had reached approximately 150 mm^3, AIU2001 ([…]) was administered i.p. once per two or three days for five times in total. All animal experiments were reviewed and approved by the Institutional Animal Care & Use Committee of Korea Institute of Radiological and Medical Sciences (kirams2018-0063, 6 December 2018).
Two axes of the tumor (L, longest axis; W, shortest axis) were measured twice per week after irradiation using Vernier calipers. Tumor volume was calculated as (L × W^2)/2 (mm^3).

A549 cells = experiment: γ-H2AX immunofluorescence foci assay; assay type: cell-based, human; settings: 5 μM
Procedure: (§1) For γ-H2AX and 4′,6-diamidino-2-phenylindole (DAPI) staining, cells were fixed in 4% paraformaldehyde for 15 min at room temperature and permeabilized with 0.1% Triton X-100 in PBS for 20 min. The cells were then incubated with 1:200 dilution of anti-phosho-H2AX (Ser139) antibody overnight at 4 °C. AlexaFluor 594-conjugated anti-mouse IgG antibody (Abcam, Cambridge, UK) was used at 1:400 dilution for 1 h at room temperature. The slides were mounted in mounting medium (DAKO, Santa Clara, CA, USA) with DAPI (ThermoFisher Scientific) before imaging. Images were acquired using an LSM880 laser scanning microscope (ZEISS, Jena, Germany). Fluorescent images were captured using the appropriate filters. Images were analyzed using the Image J and ZEN software.

H1299 cells = experiment: γ-H2AX immunofluorescence foci assay; assay type: cell-based, human; settings: 5 μM
Procedure: as §1

CHK1 = biological target: T7, CHK1 (Homo sapiens, UniProt O14757); experiment: Kinase profiling at 10 μM (Eurofins); assay type: biochemical; settings: read-out: Inhibitory activity
T7 construct: purchased Eurofins Pharma Discovery (KinaseProfiler); IC50 values by Reaction Biology Corp

Met = biological target: T8, Met (Homo sapiens, UniProt P08581); experiment: Kinase profiling at 10 μM (Eurofins); assay type: biochemical; settings: read-out: Inhibitory activity
T8 construct: purchased Eurofins Pharma Discovery (KinaseProfiler); IC50 values by Reaction Biology Corp

Abl = biological target: T9, Abl (Homo sapiens, UniProt P00519); experiment: Kinase profiling at 10 μM (Eurofins); assay type: biochemical; settings: read-out: Inhibitory activity
T9 construct: purchased Eurofins Pharma Discovery (KinaseProfiler); IC50 values by Reaction Biology Corp

c-KIT = biological target: T10, c-KIT (Homo sapiens, UniProt P10721); experiment: Kinase profiling at 10 μM (Eurofins); assay type: biochemical; settings: read-out: Inhibitory activity
T10 construct: purchased Eurofins Pharma Discovery (KinaseProfiler); IC50 values by Reaction Biology Corp

SRC (1-530) = biological target: T11, SRC (1-530) (Homo sapiens, UniProt P12931); experiment: Kinase profiling at 10 μM (Eurofins); assay type: biochemical; settings: read-out: Inhibitory activity
T11 construct: purchased Eurofins Pharma Discovery (KinaseProfiler); IC50 values by Reaction Biology Corp

MV4-11 cells = experiment: Immunoblot of phospho-STAT5; assay type: cell-based, human; settings: 1 h
Procedure: (§2) Cell lysates were prepared by extracting proteins with TNN buffer (40 mM Tris-Cl pH 8.0, 0.2% NP-40, 120 mM NaCl) or radioimmunoprecipitation assay (RIPA) lysis buffer (Millipore, Billerica MA, USA) supplemented with a protease inhibitor cocktail (Thermo Fisher Scientific, Rockford, IL, USA). Equal amounts of proteins were separated using SDS-PAGE on 8–13% gels, and transferred to nitrocellulose membranes (Bio-Rad, Hercules, CA, USA). The membranes were blocked with 5% skim milk in Tris-buffered saline-Tween 20 (TBST) (150 mM NaCl, 10 mM Tris, 0.2% Tween20), followed by overnight incubation with primary antibodies at 4 °C. The blots were developed using peroxidase-conjugated secondary antibody and the immunoreactive proteins were visualized using enhanced chemiluminescence (ECL) reagents, according to the manufacturer’s recommendations (Amersham, GE Healthcare, Buckingamshire, UK). The protein bands were visualized using a digital imaging system (ImageQuant LAS 4000 mini; GE Healthcare, UK). The protein levels were analyzed using Image J software (National Institutes of Health, Bethesda, MD, USA). Experiments were repeated at least thrice.
(§3) Supplementary Figure 3. AIU2001 inhibited downstream effector STAT5 of FLT3 signaling in
(§4) FLT3(ITD)-AML cells. […]
(§5) AIU2001 for 1h. Cell lysates were prepared and analyzed using immunoblotting for detecting […]

Molm-13 cells = experiment: Immunoblot of phospho-STAT5; assay type: cell-based, human; settings: 1 h
Procedure: as §2, §3, §4, §5

FLT3(D835Y) = FLT3(D835Y) (Homo sapiens, UniProt P36888, D835Y); experiment: Kinase profiling at 10 μM (Eurofins); assay type: biochemical; design: purchased Eurofins Pharma Discovery (KinaseProfiler); IC50 values by Reaction Biology Corp; settings: read-out: Inhibitory activity
TGFBR1 = biological target: T12, TGFBR1 (Homo sapiens, UniProt P36897); experiment: Kinase profiling at 10 μM (Eurofins); assay type: biochemical; settings: read-out: Inhibitory activity
T12 construct: purchased Eurofins Pharma Discovery (KinaseProfiler); IC50 values by Reaction Biology Corp
T12 sequence (P36897 34-503): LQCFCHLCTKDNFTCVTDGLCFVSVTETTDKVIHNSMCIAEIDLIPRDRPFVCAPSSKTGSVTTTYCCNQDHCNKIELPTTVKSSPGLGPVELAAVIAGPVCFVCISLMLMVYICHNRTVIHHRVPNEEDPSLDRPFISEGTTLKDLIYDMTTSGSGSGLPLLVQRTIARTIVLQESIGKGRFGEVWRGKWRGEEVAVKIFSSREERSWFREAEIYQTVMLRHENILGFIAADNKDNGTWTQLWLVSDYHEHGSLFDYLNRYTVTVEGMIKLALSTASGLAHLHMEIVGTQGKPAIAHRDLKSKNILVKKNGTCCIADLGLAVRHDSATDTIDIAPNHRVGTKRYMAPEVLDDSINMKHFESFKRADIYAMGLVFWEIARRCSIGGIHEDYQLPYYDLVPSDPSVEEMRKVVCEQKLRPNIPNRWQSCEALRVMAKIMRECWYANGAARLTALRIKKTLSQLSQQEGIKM

T3 sequence (O15530 whole entry): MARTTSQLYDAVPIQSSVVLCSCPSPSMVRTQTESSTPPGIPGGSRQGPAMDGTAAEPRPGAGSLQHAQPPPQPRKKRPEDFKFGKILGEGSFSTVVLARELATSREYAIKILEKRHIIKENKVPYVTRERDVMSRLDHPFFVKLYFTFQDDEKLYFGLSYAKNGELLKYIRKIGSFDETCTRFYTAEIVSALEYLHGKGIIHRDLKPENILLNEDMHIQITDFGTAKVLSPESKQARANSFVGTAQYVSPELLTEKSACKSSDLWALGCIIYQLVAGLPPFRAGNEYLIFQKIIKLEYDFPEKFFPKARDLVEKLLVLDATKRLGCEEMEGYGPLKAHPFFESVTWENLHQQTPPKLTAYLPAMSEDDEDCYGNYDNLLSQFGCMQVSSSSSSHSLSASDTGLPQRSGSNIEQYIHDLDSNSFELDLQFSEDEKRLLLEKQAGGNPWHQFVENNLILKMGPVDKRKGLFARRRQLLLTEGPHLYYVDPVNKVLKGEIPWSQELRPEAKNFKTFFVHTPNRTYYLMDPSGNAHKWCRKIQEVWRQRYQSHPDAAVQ
T7 sequence (O14757 whole entry): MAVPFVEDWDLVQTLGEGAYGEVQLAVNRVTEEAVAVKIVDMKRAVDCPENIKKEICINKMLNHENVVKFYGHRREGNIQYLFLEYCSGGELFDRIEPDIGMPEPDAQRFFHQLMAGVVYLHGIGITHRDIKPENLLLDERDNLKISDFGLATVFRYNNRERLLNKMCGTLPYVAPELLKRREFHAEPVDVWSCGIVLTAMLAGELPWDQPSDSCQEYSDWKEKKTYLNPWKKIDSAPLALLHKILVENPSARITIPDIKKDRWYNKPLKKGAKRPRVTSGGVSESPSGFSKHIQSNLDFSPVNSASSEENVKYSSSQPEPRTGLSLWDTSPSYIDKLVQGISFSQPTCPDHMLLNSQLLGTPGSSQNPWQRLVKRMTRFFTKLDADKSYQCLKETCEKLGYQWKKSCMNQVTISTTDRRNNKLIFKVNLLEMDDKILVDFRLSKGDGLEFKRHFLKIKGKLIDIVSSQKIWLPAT
T6 sequence (Q9HCP0 whole entry): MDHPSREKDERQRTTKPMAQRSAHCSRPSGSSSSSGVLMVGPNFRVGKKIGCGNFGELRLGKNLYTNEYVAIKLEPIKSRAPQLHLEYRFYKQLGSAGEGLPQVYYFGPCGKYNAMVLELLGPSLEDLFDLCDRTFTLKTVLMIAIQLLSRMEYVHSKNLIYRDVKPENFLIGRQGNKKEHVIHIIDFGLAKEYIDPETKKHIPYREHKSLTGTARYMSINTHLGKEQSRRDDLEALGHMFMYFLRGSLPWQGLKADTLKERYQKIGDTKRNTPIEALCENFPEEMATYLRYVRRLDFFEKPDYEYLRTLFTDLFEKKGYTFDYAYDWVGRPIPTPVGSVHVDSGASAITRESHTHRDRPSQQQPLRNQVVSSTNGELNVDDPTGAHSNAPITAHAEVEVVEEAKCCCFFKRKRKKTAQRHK
T10 sequence (P10721 26-976): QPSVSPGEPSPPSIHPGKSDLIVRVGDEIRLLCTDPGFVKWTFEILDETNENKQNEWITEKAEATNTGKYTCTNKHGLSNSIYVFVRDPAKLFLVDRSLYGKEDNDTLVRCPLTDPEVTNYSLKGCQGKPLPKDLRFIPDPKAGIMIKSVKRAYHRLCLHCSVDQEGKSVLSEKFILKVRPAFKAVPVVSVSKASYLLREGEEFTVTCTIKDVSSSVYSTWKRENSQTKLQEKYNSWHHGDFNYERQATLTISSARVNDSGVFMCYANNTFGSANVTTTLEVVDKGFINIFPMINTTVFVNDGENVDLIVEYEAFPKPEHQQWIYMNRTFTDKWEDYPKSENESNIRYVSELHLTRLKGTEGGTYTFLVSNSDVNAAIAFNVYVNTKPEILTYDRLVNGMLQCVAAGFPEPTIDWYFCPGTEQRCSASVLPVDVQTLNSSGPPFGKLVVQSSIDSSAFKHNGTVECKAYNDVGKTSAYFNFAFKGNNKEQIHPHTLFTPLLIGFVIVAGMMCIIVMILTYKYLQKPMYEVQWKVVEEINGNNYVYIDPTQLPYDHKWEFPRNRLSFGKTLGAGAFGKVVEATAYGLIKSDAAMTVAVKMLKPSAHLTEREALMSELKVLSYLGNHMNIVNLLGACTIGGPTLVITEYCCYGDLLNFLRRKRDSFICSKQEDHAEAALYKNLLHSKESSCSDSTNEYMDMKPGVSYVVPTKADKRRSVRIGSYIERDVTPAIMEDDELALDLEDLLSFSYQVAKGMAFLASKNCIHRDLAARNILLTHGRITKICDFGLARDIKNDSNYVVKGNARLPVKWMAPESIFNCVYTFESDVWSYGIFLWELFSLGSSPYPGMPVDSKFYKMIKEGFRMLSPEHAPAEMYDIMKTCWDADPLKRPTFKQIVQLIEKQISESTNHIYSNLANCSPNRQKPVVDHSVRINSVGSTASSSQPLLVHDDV
T1 sequence (P30291 whole entry): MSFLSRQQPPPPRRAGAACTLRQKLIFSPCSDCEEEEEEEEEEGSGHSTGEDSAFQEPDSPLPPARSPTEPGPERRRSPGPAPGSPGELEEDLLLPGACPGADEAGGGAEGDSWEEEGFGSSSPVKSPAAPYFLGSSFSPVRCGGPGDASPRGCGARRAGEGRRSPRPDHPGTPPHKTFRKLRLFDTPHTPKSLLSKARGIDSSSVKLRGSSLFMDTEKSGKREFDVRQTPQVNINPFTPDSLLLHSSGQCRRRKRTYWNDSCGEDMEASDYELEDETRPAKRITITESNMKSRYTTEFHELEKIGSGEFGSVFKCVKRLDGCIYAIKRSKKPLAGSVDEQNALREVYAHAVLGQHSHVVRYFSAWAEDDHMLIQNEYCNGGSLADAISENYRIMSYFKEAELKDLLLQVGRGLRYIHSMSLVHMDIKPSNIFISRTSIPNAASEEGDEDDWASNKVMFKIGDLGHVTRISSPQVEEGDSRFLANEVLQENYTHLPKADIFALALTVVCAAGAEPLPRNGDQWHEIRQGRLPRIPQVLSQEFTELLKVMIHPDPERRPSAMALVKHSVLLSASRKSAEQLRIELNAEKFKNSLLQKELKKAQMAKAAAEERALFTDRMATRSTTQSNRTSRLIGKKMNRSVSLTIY
T4 sequence (P28482 whole entry): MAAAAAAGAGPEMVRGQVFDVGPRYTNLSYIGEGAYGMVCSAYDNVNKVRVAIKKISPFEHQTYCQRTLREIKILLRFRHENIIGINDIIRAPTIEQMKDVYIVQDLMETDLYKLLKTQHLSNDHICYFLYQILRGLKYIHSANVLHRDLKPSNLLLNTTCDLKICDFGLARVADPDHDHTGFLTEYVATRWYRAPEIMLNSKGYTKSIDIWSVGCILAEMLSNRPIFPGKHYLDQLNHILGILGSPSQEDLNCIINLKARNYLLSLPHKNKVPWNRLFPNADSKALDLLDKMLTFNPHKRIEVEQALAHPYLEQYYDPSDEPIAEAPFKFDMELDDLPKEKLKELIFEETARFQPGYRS
T11 sequence (P12931 1-530 limits assumed): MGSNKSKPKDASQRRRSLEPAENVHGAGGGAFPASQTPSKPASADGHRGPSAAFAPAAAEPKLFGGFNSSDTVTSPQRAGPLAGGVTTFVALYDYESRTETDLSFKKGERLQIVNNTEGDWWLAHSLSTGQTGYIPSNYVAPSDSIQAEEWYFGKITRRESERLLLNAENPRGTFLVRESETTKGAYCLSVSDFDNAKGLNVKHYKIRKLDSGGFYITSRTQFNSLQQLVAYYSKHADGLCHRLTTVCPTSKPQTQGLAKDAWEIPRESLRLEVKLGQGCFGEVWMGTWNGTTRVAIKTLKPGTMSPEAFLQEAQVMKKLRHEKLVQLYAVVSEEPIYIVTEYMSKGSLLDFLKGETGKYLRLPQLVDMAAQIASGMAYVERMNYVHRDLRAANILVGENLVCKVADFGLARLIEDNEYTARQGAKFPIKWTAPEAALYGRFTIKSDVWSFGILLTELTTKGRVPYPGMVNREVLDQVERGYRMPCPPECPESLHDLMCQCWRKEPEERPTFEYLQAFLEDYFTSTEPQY

inhibition at 10 µM (WEE1): 8% | inhibition at 10 µM (CK2): 10% | inhibition at 10 µM (PDK1): 19% | inhibition at 10 µM (MAPK2): 19% | inhibition at 10 µM (ALK): 0% | inhibition at 10 µM (CK1γ1): 37% | inhibition at 10 µM (CHK1): 0% | inhibition at 10 µM (Met): 1% | inhibition at 10 µM (Abl): 51% | inhibition at 10 µM (c-KIT): ≥ 75% | inhibition at 10 µM (SRC (1-530)): 10% | inhibition at 10 µM (FLT3(D835Y)): ≥ 75% | inhibition at 10 µM (TGFBR1): 12%
Compound: Brc1ccc(-c2cnc(Nc3cccc4ccccc34)o2)cc1 [AIU2001, 5-(4-bromophenyl)-N-(naphthalen-1-yl) oxazol-2-amine]
Average tumor weight at necropsy (A549 xenografts): 1.2 g | Body weight versus control mice (A549 xenografts): did not differ | Inhibition of tumor growth compared to the vehicle (A549 xenografts): 48.3% | γ-H2AX foci (A549 cells): high levels of γ-H2AX foci | γ-H2AX foci (H1299 cells): high levels of γ-H2AX foci | Phosphorylated STAT5 (MV4-11 cells): dose-dependently inhibited phosphorylated STAT5 | Phosphorylated STAT5 (Molm-13 cells): dose-dependently inhibited phosphorylated STAT5
